The values that follow come from patent US7863328B2, “Phenylbenzoic acid derivatives, processes for the preparation thereof, pharmaceutical compositions comprising them, and therapeutic uses thereof” (Merck Patent GmbH, priority 2005, dated 2011).

SMILES strings stand for the structures.

The target of the assay is T1, chimeric protein PPARγ-Gal4 (Homo sapiens, UniProt P37231).
T1 construct: expressed in transfected cells; host or cells: CV-1 cells (monkey kidney cells)
Nature of the assay: PPARγ-Gal4 transactivation test (luciferase reporter) in cotransfected CV-1 cells. Type of assay: cell-based. The protocol:
The measurement of the PPAR activation was performed according to a technique described by Lehmann et al. (J. Biol. Chem., 270, (1995), 12953-12956).
CV-1 cells (monkey kidney cells) are cotransfected with an expression vector for the chimeric protein PPARγ-Gal4 and with a “reporter” plasmid that allows expression of the luciferase gene placed under the control of a promoter comprising Gal4 response elements.
The cells are seeded in 96-well microplates and cotransfected using a commercial reagent with the reporter plasmid (pG5-tk-pGL3) and the expression vector for the chimeric protein (PPARγ-Gal4). After incubation for 4 hours, whole culture medium (comprising 10% foetal calf serum) is added to the wells. After 24 hours, the medium is removed and replaced with whole medium comprising the test products. The products are left in contact with the cells for 18 hours. The cells are then lysed and the luciferase activity is measured using a luminometer. A PPARγ activation factor can then be calculated by means of the activation of the expression of the reporter gene induced by the product (relative to the control cells that have received no product).
In the absence of the PPARγ ligand binding domain (vector expressing Gal4 alone), the luciferase activity measured in the presence of this product is zero.
The following transactivation result was obtained with a concentration of 30 μM on PPARγ.
The transactivation test using the expression of a chimeric protein Gal-4-PPARγ makes it possible to determine also whether an agonist functions as a “full” agonist or as a “partial” agonist in this system.
An agonist is “partial” in this system if it induces a weaker response, i.e. it has lower efficacy, than rosiglitazone, which is a “full” agonist. In concrete terms, in our system, the transactivation obtained at the plateau with a partial agonist will be between 20% and 50% of the maximum response (efficacy) at the plateau of rosiglitazone.
For orientation: Reporter assays use an easily measured gene product as a stand-in for the process of interest.

T1 sequence (P37231 238-503 limits assumed, change not shown): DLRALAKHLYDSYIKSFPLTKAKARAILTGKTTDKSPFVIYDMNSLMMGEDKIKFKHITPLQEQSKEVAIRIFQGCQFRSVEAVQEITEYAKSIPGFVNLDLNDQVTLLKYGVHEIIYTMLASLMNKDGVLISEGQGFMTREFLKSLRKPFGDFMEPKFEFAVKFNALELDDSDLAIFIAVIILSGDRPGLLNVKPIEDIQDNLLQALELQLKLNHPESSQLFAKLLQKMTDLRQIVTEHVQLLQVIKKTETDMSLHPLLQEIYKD
T1 sequence (P04386 1-147 partner limits assumed): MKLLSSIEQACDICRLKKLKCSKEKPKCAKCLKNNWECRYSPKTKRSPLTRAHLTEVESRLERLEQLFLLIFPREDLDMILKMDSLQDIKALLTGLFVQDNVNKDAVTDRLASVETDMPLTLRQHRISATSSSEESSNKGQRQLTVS

Consider `Cc1oc(-c2ccccc2)nc1COc1cc2c(cc1-c1ccc(C(=O)O)cc1)CCC2=O` [Example 4, 4-[6-(5-Methyl-2-phenyloxazol-4-ylmethoxy)-1-oxoindan-5-yl]-benzoic acid], for which the “Concentration to reach the maximum stimulation of the PPARγ chimeric protein” value (Gal4-PPARγ transactivation, plateau) turned out to be 6.25 µM. Besides, the Emax (transactivation at the plateau as % of the maximum response (efficacy) of rosiglitazone, read-out: Maximum stimulation of the PPARγ chimeric protein obtained with rosiglitazone) was determined as 23%.

As to `Cc1cc(COc2cc3c(cc2-c2ccc(C(=O)O)cc2)CCC3=O)no1` [Example 29, 4-[6-(5-methylisoxazol-3-ylmethoxy)-1-oxoindan-5-yl]benzoic acid], where the note is “concentration 30 μM, 18 hours contact, relative to control cells that have received no product (control = 1)”, the “Activation factor of the chimeric protein PPARγ-Gal4” value is reported as 16.
